Measured values from patent US9593149B2, “Amylin and calcitonin receptor agonist” (Novo Nordisk A/S, priority 2014, dated 2017).
In brackets after ≈: the same amount, converted by molar mass. Numbered stars: 1 amine (or outer) side, 2 acyl side, 3 side chain; on linkers, the order of the positions; unused ones are H or OH. Side chains are listed from the residue outwards. Peptide text beside a SMILES is read from it. * marks the point of attachment. C20 diacid = O=C(O)CCCCCCCCCCCCCCCCCCC(=O)*; C18 diacid = O=C(O)CCCCCCCCCCCCCCCCC(=O)*; γGlu = O=C(O)[C@H](CCC(=O)[*:2])N[*:1]

Assays:
[1] = target: T1, human calcitonin (a) receptor, BHK570 cells (Homo sapiens, UniProt P30988); assay: Assay (II)a functional CRE-luciferase assay with albumin, human calcitonin receptor; format: cell-based; conditions: Tested with HSA; read-out: hCTR funct. EC50
T1 construct: host or cells: BHK570
T1 sequence (P30988 25-474): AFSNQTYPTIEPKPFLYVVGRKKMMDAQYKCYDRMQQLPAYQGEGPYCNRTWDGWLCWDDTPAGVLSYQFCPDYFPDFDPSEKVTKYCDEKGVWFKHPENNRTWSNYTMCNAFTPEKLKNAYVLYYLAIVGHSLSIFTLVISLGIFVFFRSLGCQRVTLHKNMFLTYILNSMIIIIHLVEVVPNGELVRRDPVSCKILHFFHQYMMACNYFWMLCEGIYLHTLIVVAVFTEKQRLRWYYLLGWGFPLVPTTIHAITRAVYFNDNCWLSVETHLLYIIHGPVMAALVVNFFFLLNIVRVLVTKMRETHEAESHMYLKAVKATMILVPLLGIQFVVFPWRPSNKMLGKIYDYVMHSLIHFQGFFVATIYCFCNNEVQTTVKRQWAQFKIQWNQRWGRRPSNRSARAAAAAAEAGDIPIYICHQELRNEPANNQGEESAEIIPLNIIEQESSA
Outline: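 BHK570 cells stably carry a CRE-luciferase reporter and the calcitonin receptor; co-transfected RAMP-3 gives the amylin 3(a) receptor line. Cells were treated for 3 h at 37 °C in DMEM with 10% FBS and 10 mM Hepes, pH 7.4. cAMP-driven luciferase was read by LucLite luminescence after 30 min at RT.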

[2] = Assay (IV) determination of solubility; format: physicochemical
Protocol: Assay (IV)—Determination of Solubility
The mimylin peptide was dissolved in water at ˜500 nmol/ml and mixed 1:1 with a series of buffers (100 mM glycylglycine pH 3.0, 100 mM glycylglycine pH 4.0, 100 mM glycylglycine pH 5.0, 100 mM bistrispropane pH 6.0, 100 mM bistrispropane pH 6.5, 100 mM bistrispropane pH 7.0, 100 mM bistrispropane pH 7.5, 100 mM bistrispropane pH 8.0).

[3] = target: T2, human calcitonin receptor (Homo sapiens, UniProt P30988); assay: Assay (VII) binding to the human calcitonin receptor (membrane, SPA); conditions: membranes, 125I-Calcitonin; read-out: hCT-R binding IC50
T2 construct: expressed in transfected cells; host or cells: BHK tk'ts 13
T2 sequence (P30988 25-474): T1 sequence (P30988 25-474)
Protocol: Assay (VII)—Determination of Binding to the Human Calcitonin Receptor (Membrane)
The binding assay was performed using scintillation proximity assay (SPA) beads (RPNQ0001) from PerkinElmer® and cell membranes prepared from a BHK tk'ts 13 cell line was stably transfected with the human calcitonin receptor and a CRE-responsive luciferase reporter gene. Membranes were prepared in the following way; the cells were rinsed with PBS and incubated with Versene for approximately 5 min before harvesting. The cells were flushed with PBS and the cell-suspension was centrifuged for 5 min at 1000 rpm. Cells were homogenized in a buffer containing 20 mM Na-HEPES and 10 mM EDTA (pH 7.4) and centrifuged at 20.000 rpm for 15 min. The resulting pellet was resuspended, homogenized and centrifuged (20.000 rpm, 15 min) in a buffer containing 20 mM Na-HEPES and 0.1 mM EDTA (pH 7.4, buffer 2). The resulting pellet was resuspended in buffer 2 and protein concentration was tested (BCA protein Assay, Pierce). The homogenate was kept cold during the whole procedure. The membranes were kept at −80° C. until use. Assay was performed in a 384 well Optiplate (PerkinElmer®) in a total volume of 40 ul. Membranes were mixed with SPA beads. Final concentration of membranes 35 ng/μL final and Final concentration of SPA beads was 0.05 mg/well. Test-compounds were dissolved in DMSO and further diluted in assay buffer (50 mM Hepes, pH 7.4, 1 mM CaCl2, 5 mM MgCl2, 0.1% OA and 0.02% Tween20). Radioligand ^125I-Calcitonin was dissolved in assay buffer and added to the Optiplate at a final concentration of 75 pM/well (approx. 30.000 cpm/10 ul). The final mixture was incubated for 120 min with shaking at 400 rpm at 25° C. prior to centrifugation (1500 rpm, 10 min). Samples were analyzed on TopCounter™ (Packard). The IC50 was calculated using (one site binding competition analysis) GraphPad Prism5 as a measure of receptor affinity.

SMILES	EC50 [1]	solubility at 18 h ([2]; bistrispropane buffer, pH 6.5)	solubility at 18 h ([2]; bistrispropane buffer, pH 7.5)	solubility at 18 h ([2]; bistrispropane buffer, pH 6.0)	solubility at 18 h ([2]; bistrispropane buffer, pH 7.0)	solubility at 18 h ([2]; bistrispropane buffer, pH 8.0)	solubility at 18 h ([2]; glycylglycine buffer, pH 3.0)	solubility at 18 h ([2]; glycylglycine buffer, pH 4.0)	solubility at 18 h ([2]; glycylglycine buffer, pH 5.0)	IC50 [3]	Solubility ([2]; pH 3.0)	Solubility ([2]; pH 4.0)	Solubility ([2]; pH 5.0)	Solubility ([2]; pH 6.0)	Solubility ([2]; pH 6.5)	Solubility ([2]; pH 7.0)	Solubility ([2]; pH 7.5)	Solubility ([2]; pH 8.0)
CC(C)C[C@H](NC(=O)[C@H](C)NC(=O)[C@H](C)NC(=O)[C@@H](NC(=O)[C@H](CO)NC(=O)[C@H](CC(C)C)NC(=O)[C@H](CCC(=O)O)NC(=O)[C@H](CO)NC(=O)[C@H](C)NC(=O)[C@H](C)NC(=O)CC[C@H](NC(=O)CCCCCCCCCCCCCCCCCCC(=O)O)C(=O)O)[C@@H](C)O)C(=O)NCC(=O)N[C@@H](CCCNC(=N)N)C(=O)N[C@@H](CC(C)C)C(=O)N[C@@H](CO)C(=O)N[C@@H](C)C(=O)N[C@@H](CCC(=O)O)C(=O)N[C@@H](CC(C)C)C(=O)N[C@@H](Cc1c[nH]cn1)C(=O)N[C@@H](CCC(=O)O)C(=O)N[C@@H](CC(C)C)C(=O)N[C@@H](C)C(=O)N[C@H](C(=O)N[C@@H](Cc1ccc(O)cc1)C(=O)N1CCC[C@H]1C(=O)N[C@@H](CCCNC(=N)N)C(=O)N[C@H](C(=O)N[C@@H](CCC(=O)O)C(=O)N[C@H](C(=O)NCC(=O)N[C@@H](CO)C(=O)NCC(=O)N[C@@H](CO)C(=O)N1CCC[C@H]1C(N)=O)[C@@H](C)O)[C@@H](C)O)[C@@H](C)O [compound 57, [N-terminal(C20 diacid-gGlu), 1A, 23Y, 30S, 31G]mimylin] ({C20 diacid-γGlu}-AASELSTAALGRLSAELHELATYPRTETGSGSP-NH2)	0.051 nM	≥ 200 µM	≥ 200 µM	≥ 200 µM	≥ 200 µM	≥ 200 µM	≥ 200 µM	≥ 200 µM	≥ 200 µM	0.108 nM								
CC(=O)N[C@@H](C)C(=O)N[C@@H](CO)C(=O)N[C@@H](CCCCNC(=O)CC[C@H](NC(=O)CCCCCCCCCCCCCCCCCCC(=O)O)C(=O)O)C(=O)N[C@@H](CC(C)C)C(=O)N[C@@H](CO)C(=O)N[C@H](C(=O)N[C@@H](C)C(=O)N[C@@H](C)C(=O)N[C@@H](CC(C)C)C(=O)NCC(=O)N[C@@H](CCCNC(=N)N)C(=O)N[C@@H](CC(C)C)C(=O)N[C@@H](CO)C(=O)N[C@@H](C)C(=O)N[C@@H](CCC(=O)O)C(=O)N[C@@H](CC(C)C)C(=O)N[C@@H](Cc1c[nH]cn1)C(=O)N[C@@H](CCC(=O)O)C(=O)N[C@@H](CC(C)C)C(=O)N[C@@H](C)C(=O)N[C@H](C(=O)N[C@@H](CC(C)C)C(=O)N1CCC[C@H]1C(=O)N[C@@H](CCCNC(=N)N)C(=O)N[C@H](C(=O)N[C@@H](CCC(=O)O)C(=O)N[C@H](C(=O)NCC(=O)N[C@@H](CO)C(=O)NCC(=O)N[C@@H](CO)C(=O)N1CCC[C@H]1C(N)=O)[C@@H](C)O)[C@@H](C)O)[C@@H](C)O)[C@@H](C)O [compound 68, [N-terminal(acetyl), des1, 4K(C20 diacid-gGlu), 30S, 31G]mimylin] (Ac-ASK([γGlu-C20 diacid])LSTAALGRLSAELHELATLPRTETGSGSP-NH2)	0.037 nM	≥ 200 µM	≥ 200 µM	≥ 200 µM	≥ 200 µM	≥ 200 µM	≥ 200 µM	≥ 200 µM	≥ 200 µM	0.01 nM								
CC(C)C[C@H](NC(=O)[C@H](C)NC(=O)[C@H](C)NC(=O)[C@@H](NC(=O)[C@H](CO)NC(=O)[C@H](CC(C)C)NC(=O)[C@H](CCC(=O)O)NC(=O)[C@H](CO)NC(=O)[C@H](C)NC(=O)[C@H](CCC(=O)O)NC(=O)CCCCCCCCCCCCCCCCC(=O)O)[C@@H](C)O)C(=O)NCC(=O)N[C@@H](CCCNC(=N)N)C(=O)N[C@@H](CC(C)C)C(=O)N[C@@H](CO)C(=O)N[C@@H](C)C(=O)N[C@@H](CCC(=O)O)C(=O)N[C@@H](CC(C)C)C(=O)N[C@@H](Cc1cnc[nH]1)C(=O)N[C@@H](CCC(=O)O)C(=O)N[C@@H](CC(C)C)C(=O)N[C@@H](C)C(=O)N[C@H](C(=O)N[C@@H](CC(C)C)C(=O)N1CCC[C@H]1C(=O)N[C@@H](CCCNC(=N)N)C(=O)N[C@H](C(=O)N[C@@H](CCC(=O)O)C(=O)N[C@H](C(=O)NCC(=O)N1CCC[C@H]1C(=O)N[C@@H](CCC(=O)O)C(=O)N[C@@H](CO)C(=O)N1CCC[C@H]1C(N)=O)[C@@H](C)O)[C@@H](C)O)[C@@H](C)O [Ex. #2, [N-terminal(C18 diacid)]mimylin] ({C18 diacid}-EASELSTAALGRLSAELHELATLPRTETGPESP-NH2)											≧200 μM	≧200 μM	≧200 μM	≧200 μM	≧200 μM	≧200 μM	≧200 μM	≧200 μM
CC(C)C[C@H](NC(=O)[C@H](CCCNC(=N)N)NC(=O)CNC(=O)[C@H](CC(C)C)NC(=O)[C@@H](NC(=O)[C@H](C)NC(=O)[C@@H](NC(=O)[C@H](CO)NC(=O)[C@H](CC(C)C)NC(=O)[C@H](CCC(=O)O)NC(=O)[C@H](CO)NC(=O)[C@H](C)NC(=O)CC[C@H](NC(=O)CCCCCCCCCCCCCCCCCCC(=O)O)C(=O)O)[C@@H](C)O)C(C)C)C(=O)N[C@@H](CO)C(=O)N[C@@H](CCC(N)=O)C(=O)N[C@@H](CCC(=O)O)C(=O)N[C@@H](CC(C)C)C(=O)N[C@@H](Cc1c[nH]cn1)C(=O)N[C@@H](CCC(=O)O)C(=O)N[C@@H](CC(C)C)C(=O)N[C@@H](CCC(N)=O)C(=O)N[C@H](C(=O)N[C@@H](Cc1ccc(O)cc1)C(=O)N1CCC[C@H]1C(=O)N[C@@H](CCCNC(=N)N)C(=O)N[C@H](C(=O)N[C@@H](CCC(=O)O)C(=O)N[C@H](C(=O)NCC(=O)N[C@@H](CO)C(=O)NCC(=O)N[C@H](C(=O)N[C@@H](Cc1ccc(O)cc1)C(N)=O)[C@@H](C)O)[C@@H](C)O)[C@@H](C)O)[C@@H](C)O [compound 114, [N-terminal(C20 diacid-gGlu), des1, 9V, 15Q, 21Q, 23Y, 30S, 31G, 32T, 33Y]mimylin]	0.097 nM	≥ 200 µM	≥ 200 µM	≥ 200 µM	≥ 200 µM	≥ 200 µM	≥ 200 µM	65 µM (≈ 257 µg/mL)	7 µM (≈ 27.6 µg/mL)	0.085 nM								
CC(C)C[C@H](NC(=O)[C@H](CCC(=O)O)NC(=O)[C@H](C)NC(=O)[C@@H](NC(=O)[C@H](CC(C)C)NC(=O)[C@H](CCCNC(=N)N)NC(=O)CNC(=O)[C@H](CC(C)C)NC(=O)[C@@H](NC(=O)[C@H](C)NC(=O)[C@@H](NC(=O)[C@@H](NC(=O)[C@H](CC(C)C)NC(=O)[C@H](CCC(=O)O)NC(=O)[C@H](CO)NC(=O)[C@H](C)NC(=O)CC[C@H](NC(=O)CCCCCCCCCCCCCCCCC(=O)O)C(=O)O)[C@@H](C)O)[C@@H](C)O)C(C)C)[C@@H](C)O)C(=O)N[C@@H](Cc1c[nH]cn1)C(=O)N[C@@H](CCC(=O)O)C(=O)N[C@@H](CC(C)C)C(=O)N[C@@H](CCC(=O)O)C(=O)N[C@H](C(=O)N[C@@H](CC(C)C)C(=O)N1CCC[C@H]1C(=O)N[C@@H](CCCNC(=N)N)C(=O)N[C@H](C(=O)N[C@@H](CCC(=O)O)C(=O)N[C@H](C(=O)NCC(=O)N[C@H](C(=O)NCC(=O)N[C@H](C(=O)N1CCC[C@H]1C(N)=O)[C@@H](C)O)[C@@H](C)O)[C@@H](C)O)[C@@H](C)O)[C@@H](C)O [compound 105, [N-terminal(C18 diacid-gGlu), des1, 6T, 9V, 14T, 21E, 30T, 31G, 32T]mimylin] ({C18 diacid-γGlu}-ASELTTAVLGRLTAELHELETLPRTETGTGTP-NH2)	0.022 nM	≥ 200 µM	≥ 200 µM	≥ 200 µM	≥ 200 µM	≥ 200 µM	≥ 200 µM	≥ 200 µM	≥ 200 µM	0.222 nM								
